From publication PMC5623904, “Structural investigation of nucleophosmin interaction with the tumor suppressor Fbw7γ” (Oncogenesis, 2017)
Where two headings read alike, the source gives them in different places. Peptide text beside a SMILES is read from it. * marks the point of attachment. Dansyl = CN(C)c1cccc2c(S(=O)(=O)*)cccc12

Legend:
Assay type in all cases: binding
[1] = molecular target: T1, Nter-NPM1 D36A-E39A (Homo sapiens, UniProt P06748, D36A/E39A); test: Equilibrium fluorescence titration, Nter-NPM1 D36A-E39A mutant; conditions: dansylated peptide 5 μM; sodium phosphate 20 mM pH 7.2, 25 °C; triplicate, ±s.d.
T1 construct: inferred from pET28a NdeI/BamHI cloning and HisTrap purification) (N); made in house; host or cells: Escherichia coli BL21(DE3)
Method: (§1) Nter-NPM1 mutants were obtained by site-directed mutagenesis using the Quickchange II Lightning Site-Directed Mutagenesis kit (Stratagene, La Jolla, CA, USA), following manufacturer’s instructions. Oligonucleotides used for PCR were obtained from Primm Biotech (Milan, Italy). Forward oligonucleotides used are reported in Supplementary Table 2.
(§2) All experiments were performed at 25 °C in sodium phosphate buffer 20 mM pH 7.2, or in sodium phosphate buffer 20 mM plus 100 mM NaCl pH 7.2 (which sets ionic strength to 150 mM), using a FluoroMax-4 spectrofluorometer (Jobin Yvon, Edison, NJ, USA), equipped with a water bath apparatus. […]
(§3) Titration experiments were conducted with an excitation wavelength of 330 nm while the fluorescence emission spectra were collected in the range between 350 and 650 nm. […] Titrations were performed in triplicate and data, analyzed with the Graphpad Prism software (https://www.graphpad.com/scientific-software/prism/), were reported as dissociation constant±s.d. […]
(§4) where F is the observed fluorescence signal, n and [A]0 are the total concentration of non-varied and varied species, respectively, and KD is the equilibrium dissociation constant. B and C are constants taking into account the total fluorescence change and fluorescence at [A]0=0, respectively, and k is a term describing the slope of the curve at high protein concentration. […]

[2] = molecular target: T2, Nter-NPM1 D36A-E37A-E39A-E93A-E121A (Homo sapiens, UniProt P06748, D36A/E121A/E37A/E39A/E93A); test: Equilibrium fluorescence titration, Nter-NPM1 quintuple mutant; conditions: dansylated peptide 5 μM; for Kd: sodium phosphate 20 mM pH 7.2, 25 °C, triplicate, ±s.d.
T2 construct: inferred from pET28a NdeI/BamHI cloning and HisTrap purification) (N); made in house; host or cells: Escherichia coli BL21(DE3)
Method: as §1
(§5) All experiments were performed at 25 °C in sodium phosphate buffer 20 mM pH 7.2, or in sodium phosphate buffer 20 mM plus 100 mM NaCl pH 7.2 (which sets ionic strength to 150 mM), using a FluoroMax-4 spectrofluorometer (Jobin Yvon, Edison, NJ, USA), equipped with a water bath apparatus. Fbw7γ and CENP-W peptides, functionalized with a dansyl (5-dimetilamminonaftalen-1-sulphonyl) group at their N terminus, were purchased from JPT (Germany). Tat peptide was synthesized employing the solid phase method following standard Fmoc strategies and labeled with dansyl fluorophore at its N terminus. Crude product was purified by RP-HPLC applying a linear gradient of 0.1% TFA CH3CN in 0.1% TFA water from 5% to 65% over 12 min using a semi-preparative 2.2 × 5 cm C18 column at a flow rate of 20 ml/min. Purity and identity were confirmed by LC–MS analysis.
(§6) Titration experiments were conducted with an excitation wavelength of 330 nm while the fluorescence emission spectra were collected in the range between 350 and 650 nm. Titrations were performed at constant peptide concentration (5 μM) and varying protein concentrations (from 0 to 200/400 μM). Titrations were performed in triplicate and data, analyzed with the Graphpad Prism software (https://www.graphpad.com/scientific-software/prism/), were reported as dissociation constant±s.d.
(§7) Equilibrium binding curves were fitted to the standard quadratic equation: […]
as §4, with “concentration. Whenever possible, under pseudo first-order conditions, the equation 1 was simplified to:” for “concentration.”

[3] = molecular target: T3, Nter-NPM1 E39A (Homo sapiens, UniProt P06748, E39A); test: Equilibrium fluorescence titration, Nter-NPM1 E39A mutant; conditions: dansylated peptide 5 μM; sodium phosphate 20 mM pH 7.2, 25 °C; triplicate, ±s.d.
T3 construct: inferred from pET28a NdeI/BamHI cloning and HisTrap purification) (N); made in house; host or cells: Escherichia coli BL21(DE3)
Method: as §1, §2, §3, §4

[4] = molecular target: T4, Nter-NPM1 D36A-E39A-E93A (Homo sapiens, UniProt P06748, D36A/E39A/E93A); test: Equilibrium fluorescence titration, Nter-NPM1 triple mutant; conditions: dansylated peptide 5 μM
T4 construct: inferred from pET28a NdeI/BamHI cloning and HisTrap purification) (N); made in house; host or cells: Escherichia coli BL21(DE3)
Method: as §1, §5, §6, §7
as §4, with “concentration. Whenever possible, under pseudo first-order conditions, the equation 1 was simplified to:” for “concentration.”

[5] = molecular target: T5, Nter-NPM1 E37A (Homo sapiens, UniProt P06748, E37A); test: Equilibrium fluorescence titration, Nter-NPM1 E37A mutant; conditions: dansylated peptide 5 μM; sodium phosphate 20 mM pH 7.2, 25 °C; triplicate, ±s.d.
T5 construct: inferred from pET28a NdeI/BamHI cloning and HisTrap purification) (N); made in house; host or cells: Escherichia coli BL21(DE3)
Method: as §1, §2, §3, §4

[6] = molecular target: T6, Nter-NPM1 D36A (Homo sapiens, UniProt P06748, D36A); test: Equilibrium fluorescence titration, Nter-NPM1 D36A mutant; conditions: dansylated peptide 5 μM; sodium phosphate 20 mM pH 7.2, 25 °C; triplicate, ±s.d.
T6 construct: inferred from pET28a NdeI/BamHI cloning and HisTrap purification) (N); made in house; host or cells: Escherichia coli BL21(DE3)
Method: as §1, §2, §3, §4

[7] = molecular target: T7, Nter-NPM1 D36A-E39A-E93A-E121A (Homo sapiens, UniProt P06748, D36A/E121A/E39A/E93A); test: Equilibrium fluorescence titration, Nter-NPM1 quadruple mutant (E121A); conditions: dansylated peptide 5 μM; sodium phosphate 20 mM pH 7.2, 25 °C; triplicate, ±s.d.
T7 construct: inferred from pET28a NdeI/BamHI cloning and HisTrap purification) (N); made in house; host or cells: Escherichia coli BL21(DE3)
Method: as §1, §5
as §6, with “constant±s.d. […]” for “constant±s.d.”
as §4

[8] = molecular target: T8, Nter-NPM1 E39A-E93A (Homo sapiens, UniProt P06748, E39A/E93A); test: Equilibrium fluorescence titration, Nter-NPM1 E39A-E93A mutant; conditions: dansylated peptide 5 μM; sodium phosphate 20 mM pH 7.2, 25 °C; triplicate, ±s.d.
T8 construct: inferred from pET28a NdeI/BamHI cloning and HisTrap purification) (N); made in house; host or cells: Escherichia coli BL21(DE3)
Method: as §1, §2, §3, §4

[9] = molecular target: T9, Nter-NPM1 E93A (Homo sapiens, UniProt P06748, E93A); test: Equilibrium fluorescence titration, Nter-NPM1 E93A mutant; conditions: dansylated peptide 5 μM; sodium phosphate 20 mM pH 7.2, 25 °C; triplicate, ±s.d.
T9 construct: inferred from pET28a NdeI/BamHI cloning and HisTrap purification) (N); made in house; host or cells: Escherichia coli BL21(DE3)
Method: as §1, §2, §3, §4

[10] = molecular target: T10, Nter-NPM1 D36A-E93A (Homo sapiens, UniProt P06748, D36A/E93A); test: Equilibrium fluorescence titration, Nter-NPM1 D36A-E93A mutant; conditions: dansylated peptide 5 μM; sodium phosphate 20 mM pH 7.2, 25 °C; triplicate, ±s.d.
T10 construct: inferred from pET28a NdeI/BamHI cloning and HisTrap purification) (N); made in house; host or cells: Escherichia coli BL21(DE3)
Method: as §1, §2, §3, §4

[11] = molecular target: T11, Nter-NPM1 D36A-E37A-E39A-E93A (Homo sapiens, UniProt P06748, D36A/E37A/E39A/E93A); test: Equilibrium fluorescence titration, Nter-NPM1 quadruple mutant (E37A); conditions: dansylated peptide 5 μM
T11 construct: inferred from pET28a NdeI/BamHI cloning and HisTrap purification) (N); made in house; host or cells: Escherichia coli BL21(DE3)
Method: as §1, §5, §6, §7
as §4, with “concentration. Whenever possible, under pseudo first-order conditions, the equation 1 was simplified to:” for “concentration.”

[12] = molecular target: T12, Nter-NPM1 E121A (Homo sapiens, UniProt P06748, E121A); test: Equilibrium fluorescence titration, Nter-NPM1 E121A mutant; conditions: dansylated peptide 5 μM; sodium phosphate 20 mM pH 7.2, 25 °C; triplicate, ±s.d.
T12 construct: inferred from pET28a NdeI/BamHI cloning and HisTrap purification) (N); made in house; host or cells: Escherichia coli BL21(DE3)
Method: as §1, §2, §3, §4

[13] = molecular target: T13, Nter-NPM1 (residues 16-123) (Homo sapiens, UniProt P06748); test: Equilibrium fluorescence titration of dansylated peptide with Nter-NPM1
T13 construct: inferred from pET28a NdeI/BamHI cloning and HisTrap purification) (N); made in house; host or cells: Escherichia coli BL21(DE3)
Method: as §5, §6, §7
as §4, with “concentration. Whenever possible, under pseudo first-order conditions, the equation 1 was simplified to:” for “concentration.”

[14] = sodium phosphate 20 mM pH 7.2, 25 °C, triplicate, ±s.d., read-out: KD, D36A-E39A-E93A
[15] = sodium phosphate 20 mM pH 7.2, 25 °C, triplicate, ±s.d., read-out: KD, D36A-E37A-E39A-E93A

T4 sequence (P06748 16-123 D36A/E39A/E93A): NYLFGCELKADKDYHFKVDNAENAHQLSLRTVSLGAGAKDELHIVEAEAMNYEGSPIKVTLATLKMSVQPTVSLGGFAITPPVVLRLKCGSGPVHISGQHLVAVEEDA
T13 sequence (P06748 16-123): as the sequence (P06748 16-123 D36A/E39A/E93A) above, with A21D, A24E, A78E counted along it
T2 sequence (P06748 16-123 D36A/E37A/E39A/E93A/E121A): as the sequence (P06748 16-123 D36A/E39A/E93A) above, with E22A, E106A counted along it
T11 sequence (P06748 16-123 D36A/E37A/E39A/E93A): as the sequence (P06748 16-123 D36A/E39A/E93A) above, with E22A counted along it
T7 sequence (P06748 16-123 D36A/E39A/E93A/E121A): as the sequence (P06748 16-123 D36A/E39A/E93A) above, with E106A counted along it
T12 sequence (P06748 16-123 E121A): as the sequence (P06748 16-123 D36A/E39A/E93A) above, with A21D, A24E, A78E, E106A counted along it
T9 sequence (P06748 16-123 E93A): as the sequence (P06748 16-123 D36A/E39A/E93A) above, with A21D, A24E counted along it
T5 sequence (P06748 16-123 E37A): as the sequence (P06748 16-123 D36A/E39A/E93A) above, with A21D, E22A, A24E, A78E counted along it
T10 sequence (P06748 16-123 D36A/E93A): as the sequence (P06748 16-123 D36A/E39A/E93A) above, with A24E counted along it
T1 sequence (P06748 16-123 D36A/E39A): as the sequence (P06748 16-123 D36A/E39A/E93A) above, with A78E counted along it
T3 sequence (P06748 16-123 E39A): as the sequence (P06748 16-123 D36A/E39A/E93A) above, with A21D, A78E counted along it
T6 sequence (P06748 16-123 D36A): as the sequence (P06748 16-123 D36A/E39A/E93A) above, with A24E, A78E counted along it
T8 sequence (P06748 16-123 E39A/E93A): as the sequence (P06748 16-123 D36A/E39A/E93A) above, with A21D counted along it

Row | SMILES | Kd [1] [µM] | Kd [2] [µM] | KD 100mM NaCl, D36A-E37A-E39A-E93A-E121A ([2]; sodium phosphate 20 mM plus 100 mM NaCl pH 7.2 (ionic strength 150 mM), 25 °C) | Kd [3] [µM] | Kd [4, 14] [µM] | Kd ([4]; sodium phosphate 20 mM plus 100 mM NaCl pH 7.2 (ionic strength 150 mM), 25 °C, read-out: KD 100mM NaCl, D36A-E39A-E93A) [µM] | Kd [5] [µM] | Kd [6] [µM] | Kd [7] [µM] | Kd [8] [µM] | Kd [9] [µM] | Kd [10] [µM] | Kd [11, 15] [µM] | Kd ([11]; sodium phosphate 20 mM plus 100 mM NaCl pH 7.2 (ionic strength 150 mM), 25 °C, read-out: KD 100mM NaCl, D36A-E37A-E39A-E93A) [µM] | Kd [12] [µM] | Kd ([13]; SD, read-out: Nter-NPM1 KD) [µM] | Kd ([13]; wild type, sodium phosphate 20 mM plus 100 mM NaCl pH 7.2 (ionic strength 150 mM), 25 °C, dansylated peptide 5 μM, read-out: KD 100mM NaCl, Nter-NPM1) [µM]
1 | CSCC[C@H](NC(=O)[C@H](CCCNC(=N)N)NC(=O)[C@H](CCCNC(=N)N)NC(=O)[C@H](CCCNC(=N)N)NC(=O)[C@H](CS)NC(=O)[C@H](Cc1ccccc1)NC(=O)[C@@H]1CCCN1C(=O)[C@H](CC(C)C)NS(=O)(=O)c1cccc2c(N(C)C)cccc12)C(=O)N[C@@H](CCCCN)C(=O)N[C@@H](CCCNC(=N)N)C(=O)N[C@@H](CCCCN)C(=O)N[C@@H](CC(C)C)C(=O)N[C@@H](CC(=O)O)C(=O)N[C@@H](Cc1c[nH]cn1)C(=O)O [Fbw7γ*] (Dansyl-LPFCRRRMKRKLDH-OH) | 13.5 ± 2 | 654 ± 46.9 | No Interaction | 6.2 ± 1.5 | 22 ± 3 | 66.8 ± 12.5 | 12.5 ± 1.4 | 10.8 ± 2.6 | 224 ± 35.9 | 7.6 ± 1.9 | 5 ± 1.6 | 8.4 ± 1.5 | 151 ± 20.5 | 158 ± 12.3 | 13.3 ± 3.8 | 3.2 ± 0.6 | 20.6 ± 2.6
2 | CC(C)C[C@H](NC(=O)[C@H](Cc1ccccc1)NC(=O)CNC(=O)[C@H](CCCNC(=N)N)NC(=O)[C@@H]1CCCN1C(=O)[C@H](C)NC(=O)[C@H](CCCCN)NC(=O)[C@H](CCCNC(=N)N)NC(=O)[C@H](CCCCN)NS(=O)(=O)c1cccc2c(N(C)C)cccc12)C(=O)N[C@@H](CCCCN)C(=O)N[C@@H](CCCNC(=N)N)C(=O)N[C@H](C(=O)N[C@@H](Cc1ccccc1)C(=O)N[C@@H](CCCCN)C(=O)N[C@@H](CCCNC(=N)N)C(=O)N[C@@H](CCCCN)C(=O)N[C@@H](CCCCN)C(=O)O)C(C)C [CENP-W*] (Dansyl-KRKAPRGFLKRVFKRKK-OH) | – | 734 ± 158 | – | – | 18.4 ± 2.6 | – | – | – | 82.8 ± 5.6 | – | – | – | 71.4 ± 9.1 | – | – | 6.2 ± 0.9 | –
